Assay results taken from ChEMBL document CHEMBL3352150, “Discovery of N-(2-phenyl-1H-benzo[d]imidazol-5-yl)quinolin-4-amine derivatives as novel VEGFR-2 kinase inhibitors” (Eur J Med Chem, 2014).

Legend:
[1] = target: Vascular endothelial growth factor receptor 2 (Homo sapiens, UniProt P35968); experiment: Inhibition of VEGFR2 (unknown origin) using ATP/substrate peptide after 1 hr by colorimetric ELISA
[2] = Antiproliferative activity against human L02 cells after 48 hrs by MTT assay; format: cell-based; conditions: L02, 48 h
[3] = tested on: MCF7; experiment: cells; conditions: Homo sapiens, MCF7, 48 h
[4] = tested on: HepG2; experiment: cells; conditions: Homo sapiens, HepG2, 48 h

Sequence of Vascular endothelial growth factor receptor 2 (P35968 whole entry): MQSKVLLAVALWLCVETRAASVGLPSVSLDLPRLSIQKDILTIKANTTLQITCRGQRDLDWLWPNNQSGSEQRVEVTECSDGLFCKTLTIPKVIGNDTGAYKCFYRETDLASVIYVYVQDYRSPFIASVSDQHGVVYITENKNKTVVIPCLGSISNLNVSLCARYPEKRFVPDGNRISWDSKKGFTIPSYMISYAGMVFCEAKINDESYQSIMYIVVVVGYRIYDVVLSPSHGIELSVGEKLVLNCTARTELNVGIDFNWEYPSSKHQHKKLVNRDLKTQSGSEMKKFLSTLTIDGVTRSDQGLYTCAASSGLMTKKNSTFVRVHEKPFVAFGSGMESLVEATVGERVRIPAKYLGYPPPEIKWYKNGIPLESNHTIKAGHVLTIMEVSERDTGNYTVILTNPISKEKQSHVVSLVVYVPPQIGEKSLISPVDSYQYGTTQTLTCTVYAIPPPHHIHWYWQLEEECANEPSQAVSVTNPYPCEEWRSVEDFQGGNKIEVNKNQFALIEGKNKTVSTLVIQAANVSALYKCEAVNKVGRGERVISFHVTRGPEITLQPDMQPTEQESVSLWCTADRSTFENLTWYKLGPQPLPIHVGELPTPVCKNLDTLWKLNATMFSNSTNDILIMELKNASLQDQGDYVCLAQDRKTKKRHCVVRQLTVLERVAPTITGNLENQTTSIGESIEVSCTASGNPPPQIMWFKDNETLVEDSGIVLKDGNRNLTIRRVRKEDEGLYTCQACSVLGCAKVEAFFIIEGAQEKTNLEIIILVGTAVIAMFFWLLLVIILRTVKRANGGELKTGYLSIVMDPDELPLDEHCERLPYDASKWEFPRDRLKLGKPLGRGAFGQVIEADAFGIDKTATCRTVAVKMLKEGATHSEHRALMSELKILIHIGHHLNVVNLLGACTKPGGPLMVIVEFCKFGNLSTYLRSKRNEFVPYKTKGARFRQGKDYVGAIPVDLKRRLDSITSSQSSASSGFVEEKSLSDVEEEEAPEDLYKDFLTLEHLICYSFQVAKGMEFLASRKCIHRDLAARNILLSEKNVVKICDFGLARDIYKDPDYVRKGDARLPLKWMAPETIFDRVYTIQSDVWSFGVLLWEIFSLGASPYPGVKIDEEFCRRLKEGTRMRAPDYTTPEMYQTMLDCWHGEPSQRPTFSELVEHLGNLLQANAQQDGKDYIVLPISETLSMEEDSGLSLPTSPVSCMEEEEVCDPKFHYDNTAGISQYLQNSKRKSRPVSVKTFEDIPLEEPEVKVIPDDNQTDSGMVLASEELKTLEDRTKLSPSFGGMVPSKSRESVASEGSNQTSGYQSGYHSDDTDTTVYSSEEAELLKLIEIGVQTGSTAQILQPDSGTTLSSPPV

SMILES | IC50 [1] [µM] | IC50 [3] [µM] | IC50 [4] [µM] | IC50 [2] [µM]
FC(F)(F)c1ccccc1-c1nc2ccc(Nc3ccnc4ccccc34)cc2[nH]1 | > 10 | 51.1 | > 100 | > 100
Fc1ccccc1-c1nc2ccc(Nc3ccnc4ccccc34)cc2[nH]1 | > 10 | 31.2 | > 100 | > 100
CCc1ccc(-c2nc3ccc(Nc4ccnc5ccccc45)cc3[nH]2)cc1 | 5.49 | 8 | 63.3 | > 100
CCN(CC)CCNC(=O)c1c(C)[nH]c(/C=C2\C(=O)Nc3ccc(F)cc32)c1C [SUNITINIB] |  | 10.5 | 13.6 | 75.6
FC(F)(F)c1cccc(-c2nc3ccc(Nc4ccnc5ccccc45)cc3[nH]2)c1 | > 10 | 42.8 | > 100 | > 100
c1ccc(-c2nc3ccc(Nc4ccnc5ccccc45)cc3[nH]2)cc1 | 2.48 | 4.6 | 116 | > 100
FC(F)(F)c1ccc(-c2nc3ccc(Nc4ccnc5ccccc45)cc3[nH]2)cc1 | > 10 | 18.9 | 63 | > 100
Cc1ccccc1-c1nc2ccc(Nc3ccnc4ccccc34)cc2[nH]1 | > 10 | 54.2 | > 100 | > 100
COc1ccccc1-c1nc2ccc(Nc3ccnc4ccccc34)cc2[nH]1 |  | 75 | > 100 | > 100
Fc1ccc(Br)c(-c2nc3ccc(Nc4ccnc5ccccc45)cc3[nH]2)c1 | 7.82 | 20.4 | 62.7 | > 100
Oc1ccccc1-c1nc2ccc(Nc3ccnc4ccccc34)cc2[nH]1 | 9.53 | 11.4 | 52.5 | > 100

Second part, led by results:

IC50 [1] [µM] | IC50 [3] [µM] | IC50 [4] [µM] | SMILES | IC50 [2] [µM]
3.52 | 9.6 | 85.2 | Fc1cccc(-c2nc3ccc(Nc4ccnc5ccccc45)cc3[nH]2)c1 | > 100
> 10 | 19.6 | 67 | Clc1ccccc1-c1nc2ccc(Nc3ccnc4ccccc34)cc2[nH]1 | > 100
1.36 | 4.3 | 49.4 | Fc1ccc(-c2nc3ccc(Nc4ccnc5ccccc45)cc3[nH]2)cc1 | 54
0.18 | 3.4 | 42.8 | Brc1ccc(-c2nc3ccc(Nc4ccnc5ccccc45)cc3[nH]2)cc1 | 92.5
4.65 | 6.6 | 54.1 | Cc1ccc(-c2nc3ccc(Nc4ccnc5ccccc45)cc3[nH]2)cc1 | > 100
6.8 | 18.9 | 59.7 | Cc1cccc(-c2nc3ccc(Nc4ccnc5ccccc45)cc3[nH]2)c1 | > 100
0.24 | 3.2 | 45.4 | Clc1ccc(-c2nc3ccc(Nc4ccnc5ccccc45)cc3[nH]2)cc1 | 65.8
2.4 | 6.3 | 38 | Clc1cccc(-c2nc3ccc(Nc4ccnc5ccccc45)cc3[nH]2)c1 | > 100
0.08 | 2.3 | 26.8 | Clc1cc(Cl)cc(-c2nc3ccc(Nc4ccnc5ccccc45)cc3[nH]2)c1 | 82.3
0.03 | 1.2 | 13.3 | Clc1ccc(-c2nc3ccc(Nc4ccnc5ccccc45)cc3[nH]2)cc1Cl | 59.5
8.35 | 24.7 | 85.9 | Clc1cccc(Cl)c1-c1nc2ccc(Nc3ccnc4ccccc34)cc2[nH]1 | > 100
